In test [1] the test system is HDAC. The test is described as follows: Inhibitory activity against HDAC (BIOMOL Quantizyme Assay system, Fluor de Lys substrate). Format: biochemical. Conditions: HeLa nuclear extract as source of HDAC enzymes, enzyme reaction 1 hr. On the procedure:
HDAC activity was analyzed using BIOMOL Quantizyme™ Assay system which comprised two steps of 1) enzyme reaction between HDAC and a substrate and 2) determination of the level of HDAC inhibitory activity.
(§1) 0.5 μl of HeLa nuclear organic layer (10 μM) (a source of HDAC enzymes) was then added thereto to a final concentration of 100 nM. The enzyme reaction was carried out for 1 hr.
Subsequently, in step 2), 2 μM tricostatin A was added to 50 μl of Flour de Lys™ developer, followed by allowing the mixture to react at room temperature for 15 minutes. The light excited at 355 nm and emitted at 460 nm from the fluorophore was measured with a fluorometric plate reader. The intensity of the fluorescence increases as the enzyme activity is higher. The HDAC inhibitory activity of each of the test compounds was determined and compared with that of the control.
0.5 μl of HeLa nuclear organic layer (10 μM) (a source of HDAC enzymes) was then added thereto to a final concentration of 100 nM, The enzyme reaction was carried out for 1 hr.
as §1, §1

The subject of test [2] is colon cancer cells HCT116. Description: Inhibitory activity against proliferation of cancer cells, SRB (Sulforhodamine B) analysis. The class given is cell-based. Conditions: Homo sapiens, read-out: Inhibitory conc. against cancer cell growth (EC50 μM) HCT116. On the procedure: Cancer cells were inoculated into a 96-well microplate at a concentration of 1×10^3˜3×10^3 cells/well and incubated under the condition of 37° C., 5% CO2 for 24 hrs. After the incubation was completed, 0.2, 1, 5, 25, or 100 μM of each of the compounds of Examples was added to the plate, and then the reactant was incubated for 48 hrs. After the substrate was stained with SRB, the anti-cancer activity was determined by comparing the amount of protein in the cells treated with the compound of Examples with that of protein in untreated cells.
Specifically, after the incubation was completed, the culture medium was removed from each well, and the cells were washed 3 times with PBS (pH 7.4). Then, a solution of 50% trichloroacetic acid (TCA) was added to each well in an amount of 50 μl/well at 4° C. for 1 hr to fix them. Then, the microplate was washed 5 times with distilled water and dried in air. […]
50 μl of a staining solution prepared by dissolving 0.4% SRB in 1% acetic acid was added to the wells, and the microplate was kept at room temperature for 1 hr. The well plate was then washed 5 times with 1% acetic acid to remove unbound SRB and dried in air. The stained cells were treated with 150 μl/well of 10 mM Tris-HCl solution (pH 10.5) to elute SRB from the cells, and the absorbance of the cells treated with the compounds of examples at 540 nm was measured, based on the absorbance of an untreated cell. The EC50 value representing inhibition of the cancer cell growth by the extent of 50% was calculated from the measured absorbance, and the results are shown in Table 6.

Where [3] appears, read: Table 3, formula (2) series, read-out: IC50 (HDAC inhibitory concentration).
Setting [4] is: HCT-116, Table 4, 48 hrs incubation with compound.
The mark [5] stands for this setting: Table 5, formula (3) series, read-out: Inhibitory conc. (IC50, μM/ml).
The mark [6] stands for this setting: HCT-116, Table 6, 48 hrs incubation with compound.
Setting [7] is: Table 7, formula (4) series, read-out: HDAC Inhibitory conc. (IC50, μM/ml).
[8] abbreviates: HCT-116, Table 8, 48 hrs incubation with compound.

Drawing on patent publication US8053435B2, “Naphthalenyloxypropenyl derivatives having inhibitory activity against histone deacetylase and pharmaceutical composition comprising the same” (Korea Research Institute of Chemical Technology, priority 2006, dated 2011), this text covers IC50 and EC50 for 24 compounds.

SMILES strings stand for the structures. Read-outs that look alike come from different tables or passages of the source.

For `COc1ccc(CCNC(=O)/C(=C/CCCCC(=O)NO)COc2cccc3ccccc23)cc1` [Example 2-16, (E)-N8-Hydroxy-N1-(4-methoxyphenethyl)-2-((naphthalen-1-yloxy)methyl)-2-octenediamide], the IC50 in test [1] (setting [3]) stood at 0.017 µM. Also, in test [2] (setting [4]), the EC50 stood at 0.7 µM.
Take `O=C(CCCC/C=C(\COc1cccc2ccccc12)C(=O)NC1CCN(C2CCCC2)CC1)NO` [Example 2-19, (E)-N1-(1-Cyclopentylpiperidin-4-yl)-N8-hydroxy-2-((naphthalen-1-yloxy)methyl)-2-octenediamide]: the IC50 in test [1] (setting [3]) was 0.013 µM. Besides, the EC50 in test [2] (setting [4]) is 0.8 µM.
In the case of `O=C(CCCC/C=C(\COc1cccc2ccccc12)C(=O)NC1CCN(Cc2ccccc2)C1)NO` (stereo not drawn) [Example 2-20, (E)-N1-(1-Benzylpyrrolidin-3-yl)-N8-hydroxy-2-((naphthalen-1-yloxy)methyl)-2-octenediamide], in test [1] (setting [3]), the IC50 worked out at 0.007 µM. The concentration giving a half-maximal response (EC50) in test [2] (setting [4]) was 0.9 µM.
In the same order, the values of `CC(C)N1CCC(NC(=O)/C(=C/CCCCC(=O)NO)COc2cccc3ccccc23)C1` (stereo not drawn) [Example 2-21, (E)-N8-Hydroxy-N1-(1-isopropylpyrrolidin-3-yl)-2-((naphthalen-1-yloxy)methyl)-2-octenediamide] are 0.012 µM and 1 µM.
As to `O=C(CCCC/C=C(\COc1ccc2ccccc2c1)C(=O)NC1CCN(C2CCCCC2)C1)NO` (stereo not drawn) [Example 2-25, (E)-N1-(1-Cyclohexylpyrrolidin-3-yl)-N8-hydroxy-2-((naphthalen-2-yloxy)methyl)-2-octenediamide], the IC50 in test [1] (setting [3]) stood at 0.01 µM. Besides, the half-maximal effective concentration (EC50) in test [2] (setting [4]) stood at 0.5 µM.
Take `O=C(CCCC/C=C(\COc1cccc2ccccc12)C(=O)NC1CCN(C2CC2)C1)NO` (stereo not drawn) [Example 2-26, (E)-N1-(1-Cyclopropylpyrrolidin-3-yl)-N8-hydroxy-2-((naphthalen-1-yloxy)methyl)-2-octenediamide]: the IC50 in test [1] (setting [3]) is 0.011 µM. The concentration giving a half-maximal response (EC50) in test [2] (setting [4]) is less than 0.2 µM.
As to `O=C(CCCC/C=C(\COc1cccc2ccccc12)C(=O)NC1CCN(C2CC2)CC1)NO` [Example 2-27, (E)-N1-(1-Cyclopropylpiperidin-4-yl)-N8-hydroxy-2-((naphthalen-1-yloxy)methyl)-2-octenediamide], the IC50 in test [1] (setting [3]) turned out to be 0.016 µM. Besides, the EC50 in test [2] (setting [4]) came out at 0.32 µM.
`CCN1CCC(NC(=O)/C(=C/CCCCC(=O)NO)COc2cccc3ccccc23)C1` (stereo not drawn) [Example 2-29, (E)-N1-(1-Ethylpyrrolidin-3-yl)-N8-hydroxy-2-((naphthalen-1-yloxy)methyl)-2-octenediamide]: the IC50 in test [1] (setting [3]) amounted to 0.01 µM. Besides, in test [2] (setting [4]), the EC50 was 0.9 µM.
Regarding `CC(C)N1CCC(NC(=O)/C(=C/CCCCC(=O)NO)COc2cccc3ccccc23)CC1` [Example 2-30, (E)-N8-Hydroxy-N1-(1-isopropylpiperidin-4-yl)-2-((naphthalen-1-yloxy)methyl)-2-octenediamide], the IC50 in test [1] (setting [3]) was 0.015 µM. In test [2] (setting [4]), the half-maximal effective concentration (EC50) is 0.7 µM.
For `O=C(CCCC/C=C(/CNCCN1CCOCC1)COc1cccc2ccccc12)NO` [Example 3-1, (Z)—N-hydroxy-8-(2-morpholinoethylamino)-7-((naphthalen-1-yloxy)methyl)oct-6-enamide], the IC50 in test [1] (setting [5]) is 0.002 µM. For the same compound, the EC50 in test [2] (setting [6]) was found to be 0.2 µM.
Take `COCC(C)NC/C(=C/CCCCC(=O)NO)COc1cccc2ccccc12` (stereo not drawn) [Example 3-2, (Z)—N-Hydroxy-8-(1-methoxypropan-2-ylamino)-7-((naphthalen-1-yloxy)methyl)oct-6-enamide]: the IC50 in test [1] (setting [5]) was found to be 0.005 µM. For the same compound, the EC50 in test [2] (setting [6]) was determined as 0.2 µM.
Consider `O=C(CCCC/C=C(/CNCCCN1CCCC1=O)COc1cccc2ccccc12)NO` [Example 3-3, (Z)—N-Hydroxy-8-(naphthalen-1-yloxy)-7-((3-(2-oxopyrrolidin-1-yl)propylamino)methyl)oct-6-enamide], for which, in test [1] (setting [5]), the IC50 is 0.003 µM. For the same compound, the EC50 in test [2] (setting [6]) came to 0.5 µM.
As for `O=C(CCCC/C=C(/CNCCCn1ccnc1)COc1cccc2ccccc12)NO` [Example 3-4, (Z)-8-(3-(1H-Imidazol-1-yl)propylamino)-N-hydroxy-7-((naphthalen-1-yloxy)methyl)oct-6-enamide], the IC50 in test [1] (setting [5]) stood at 0.003 µM. Also, the EC50 in test [2] (setting [6]) was 0.7 µM.
Consider `CN(C)CC(C)(C)CNC/C(=C/CCCCC(=O)NO)COc1cccc2ccccc12` [Example 3-7, (Z)-8-(3-(Dimethylamino)-2,2-dimethylpropylamino)-N-hydroxy-7-((naphthalen-1-yloxy)methyl)oct-6-enamide], for which the IC50 in test [1] (setting [5]) came out at 0.012 µM. Besides, the concentration giving a half-maximal response (EC50) in test [2] (setting [6]) was 1.2 µM.
On to `O=C(CCCC/C=C(/CNCCN1CCCC1)COc1cccc2ccccc12)NO` [Example 3-8, (Z)—N-Hydroxy-8-(naphthalen-1-yloxy)-7-((2-(pyrrolidin-1-yl)ethylamino)methyl)oct-6-enamide], for which the IC50 in test [1] (setting [5]) was 0.005 µM. In test [2] (setting [6]), the concentration giving a half-maximal response (EC50) came out at 0.5 µM.
Take `COCCNC/C(=C/CCCCC(=O)NO)COc1cccc2ccccc12` [Example 3-10, (Z)—N-Hydroxy-8-(2-methoxyethylamino)-7-((naphthalen-1-yloxy)methyl)oct-6-enamide]: in test [1] (setting [5]), the IC50 was 0.006 µM. For the same compound, the EC50 in test [2] (setting [6]) was less than 0.2 µM.
Regarding `CC(C)N1CCC(NC/C(=C/CCCCC(=O)NO)COc2cccc3ccccc23)CC1` [Example 3-11, (Z)—N-Hydroxy-8-(1-isopropylpiperidin-4-ylamino)-7-((naphthalen-1-yloxy)methyl)oct-6-enamide], in test [1] (setting [5]), the IC50 amounted to 0.012 µM. Moreover, the half-maximal effective concentration (EC50) in test [2] (setting [6]) was determined as 1.3 µM.
For the compound `O=C(CCCC/C=C(/CNCc1cccs1)COc1cccc2ccccc12)NO` [Example 3-14, (Z)—N-Hydroxy-8-(naphthalen-1-yloxy)-7-((thiophen-2-ylmethylamino)methyl)oct-6-enamide], the IC50 in test [1] (setting [5]) is 0.002 µM. Further, the EC50 in test [2] (setting [6]) is 0.3 µM.
`CCN1CCC(NC/C(=C/c2ccc(C(=O)NO)cc2)COc2cccc3ccccc23)CC1` [Example 4-1, (Z)-4-(3-(1-ethylpiperidin-4-ylamino)-2-((naphthalen-1-yloxy)methyl)prop-1-enyl)-N-hydroxybenzamide]: in test [1] (setting [7]), the IC50 was found to be 0.014 µM. Besides, the EC50 in test [2] (setting [8]) came out at 1.1 µM.
Regarding `CCN1CCC(NC/C(=C/c2ccc(C(=O)NO)cc2)COc2cccc3ccccc23)C1` (stereo not drawn) [Example 4-2, (Z)-4-(3-(1-ethylpyrrolidin-3-ylamino)-2-((naphthalen-1-yloxy)methyl)prop-1-enyl)-N-hydroxybenzamide], the IC50 in test [1] (setting [7]) is 0.017 µM. Moreover, the EC50 in test [2] (setting [8]) is 0.8 µM.
`O=C(NO)c1ccc(/C=C(/CNC2CCN(C3CCCC3)CC2)COc2cccc3ccccc23)cc1` [Example 4-7, (Z)-4-(3-(1-cyclopentylpiperidin-4-ylamino)-2-((naphthalen-1-yloxy)methyl)prop-1-enyl)-N-hydroxybenzamide]: the IC50 in test [1] (setting [7]) was determined as 0.016 µM. Also, the 50% effective concentration (EC50) in test [2] (setting [8]) came out at 10 µM.
In the case of `O=C(NO)c1ccc(/C=C(/CNC2CCN(C3CC3)CC2)COc2cccc3ccccc23)cc1` [Example 4-10, (Z)-4-(3-(1-cyclopropylpiperidin-4-ylamino)-2-((naphthalen-1-yloxy)methyl)prop-1-enyl)-N-hydroxybenzamide], the IC50 in test [1] (setting [7]) came to 0.011 µM. The half-maximal effective concentration (EC50) in test [2] (setting [8]) is 0.5 µM.
With `O=C(NO)c1ccc(/C=C(/CNC2CCN(C3CC3)C2)COc2cccc3ccccc23)cc1` (stereo not drawn) [Example 4-11, (Z)-4-(3-(1-cyclopropylpyrrolidin-3-ylamino)-2-((naphthalen-1-yloxy)methyl)prop-1-enyl)-N-hydroxybenzamide], the IC50 in test [1] (setting [7]) is 0.023 µM. The EC50 in test [2] (setting [8]) was determined as 1 µM.
For `COCC(C)NC/C(=C/c1ccc(C(=O)NO)cc1)COc1cccc2ccccc12` (stereo not drawn) [Example 4-13, (Z)—N-hydroxy-4-(3-(1-methoxypropan-2-ylamino)-2-((naphthalen-1-yloxy)methyl)prop-1-enyl)benzamide], in that order: 0.005 µM and less than 0.2 µM.

As usually defined, the EC50 is the concentration giving half of the maximal effect.
